Experimental data from patent US4260745A, “3-Halo cephalosporins” (Eli Lilly and Company, priority 1979, dated 1981).
Converted amounts (≈) assume the structure as drawn. Read-outs that look alike come from different tables or passages of the source.

Experiments:
[1] = system: Penicillin Resistant Staphylococcus; assay: Gradient Plate technique, MIC; assay type: cell-based; conditions: read-out: Minimum Inhibitory Concentration
From the text: The following Table II lists the minimum inhibitory concentration (MIC) for 7-[2-(2-thienyl)acetamido]-3-chloro-3-cephem-4-carboxylic acid against penicillin resistant Staphylococcus both in the presence of and absence of serum. The MIC values were obtained by the Gradient Plate technique carried out essentially as described by Bryson and Szybalski, Science, 116, 45 (1952). […]

Electrometric titration = assay type: physicochemical; conditions: 66% aqueous dmf; only or first pKa; read-out: pKa

O=C(Cc1cccs1)NC1C(=O)N2C(C(=O)O)=C(Br)CS[C@H]12 (some centres unmarked) [7-[2-(2-Thienyl)acetamido]-3-bromo-3-cephem-4-carboxylic acid]
MIC ([1]; Clinical Isolate V 32, No Serum): 0.6 µg/mL (≈ 1.49 µM) | MIC ([1]; Clinical Isolate V 41, No Serum): 0.5 µg/mL (≈ 1.24 µM) | MIC ([1]; Clinical Isolate V 84, No Serum): 0.4 µg/mL (≈ 0.992 µM) | MIC ([1]; Clinical Isolate X 1.1, No Serum): 0.3 µg/mL (≈ 0.744 µM) | pKa (Electrometric titration): 4.4
